Assay results: patent US6709830B2, “Methods for modulating the activation of a lymphocyte expressed G protein coupled receptor involved in cell proliferation, autoimmunity and inflammation” (The Regents of the University of California, priority 1997, dated 2004)

Target: T1, G2A (Mus musculus, UniProt Q9Z282)
T1 construct: expressed in transfected cells; host or cells: MCF 10A (human breast epithelial cells, no endogenous G2A), plasmid pEXV3 G2A.GFP
T1 sequence (Q9Z282 1-382): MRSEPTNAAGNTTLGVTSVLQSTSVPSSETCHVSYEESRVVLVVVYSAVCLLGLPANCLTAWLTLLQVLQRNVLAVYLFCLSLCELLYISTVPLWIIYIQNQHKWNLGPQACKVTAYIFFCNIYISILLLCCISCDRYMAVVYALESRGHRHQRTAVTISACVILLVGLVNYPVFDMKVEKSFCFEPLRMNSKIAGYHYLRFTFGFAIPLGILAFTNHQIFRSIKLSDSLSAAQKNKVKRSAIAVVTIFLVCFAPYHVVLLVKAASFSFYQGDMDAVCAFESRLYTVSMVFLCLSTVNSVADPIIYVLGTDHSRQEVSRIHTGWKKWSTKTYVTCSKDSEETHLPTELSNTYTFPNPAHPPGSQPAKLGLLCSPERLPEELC
Assay: Radioligand binding assay with cell homogenates of HEK 293 G2A.GFP cells
Conditions: HEK 293 G2A.GFP cell homogenate
Description: To characterise the binding of LPC and SPC to G2A, we performed radioligand binding assays as described previously (Xu, Y, e al, Nature Cell Biology, 2: pp261-267, 2000). [^3H] 16:0 LPC and [^3H] SPC bound to cell homogenates from G2A expressing HEK 293 cells in a time-dependent manner and reached equilibrium after 60 minutes incubation at 4° C. (FIGS. 5A and B). […] LPC and [^3H] SPC. Binding of [^3H] LPC and [^3H] […] The maximum binding capacities for LPC and SPC were approximately 1,503 fmole/10^5 cells and 1,840 fmole/10^5 cells respectively.
Binding assay HEK 293 GFP or HEK 293 G2A.GFP cells were serum starved for 20 hours and subsequently collected in PBS/EDTA. Pelleted cells were stored at −80° C. until use. Frozen cells (10^6 cells/ml) were homogenized in “binding buffer” containing 20 mM Tris-HCl pH 7.5, 100 mM NaCl, 15 mM NaF, 0.2 mM PMSF, 1 mM MgCl2 and 4 mg/ml fatty acid-free BSA in a tight-fit glass Dounce homogeniser. Assays were performed in 96-well plates in triplicate with 100 μl cell homogenate (equivalent to 10^5 cells/well). Varying amounts of [^3H] 16:0 LPC or [^3H] SPC were added to cell homogenates in 50 μl of binding buffer in the presence or absence of cold 16:0 LPC or SPC, or other competitors. Plates were incubated at 4° C. for 2 hours, or for the indicated times. Cell-bound [^3H] LPC or [^3H] SPC was collected onto a filter (Printed Filtermat A, Wallac, Gaithersburg, Md.) using an automated cell harvester (HARVESTER 96, Tomtec, Orange, Conn.). A pause wash programme (five cycle washes) was used. Filters were presoaked in 1% polyethyleneimine (Sigma) to prevent nonspecific binding, dried, sealed in bags (Sample Bag, Wallac) with 4.5 ml Betaplate “Scint” scintillation cocktail (Wallac), and counted in a 1450 Microbeta Trilux Liquid Scintillation and Luminescence Counter (Wallac). Specific binding was calculated by subtraction of nonspecific binding (binding detected in the presence of 100-fold excess unlabelled lipid) from total binding.

lysophosphatidylcholine [LPC]
Kd (Scatchard analysis, saturation binding of [3H] 16:0 LPC or [3H] SPC, 4° C., read-out: dissociation constant (Kd)): 65 nM | maximum binding capacity (saturation binding): approximately 1,503 fmole/10^5 cells
